Measurements taken from patent publication US9303069B2, “Peptides for treating cancer” (University of Mississippi Medical Center, priority 2014, dated 2016).

Assays:
Type in all cases: cell-based, human
HOSE and HOSE/IRIS cells = test: Survival of HOSE versus HOSE/IRIS cells; conditions: 10 μM inhibitor, 24 hours
Method: To test that, HOSE or HOSE/IRIS cells were incubated for 24 hours with 10 μM of ErbB2 (CP-724714), EGFR (Erlotinib), TrkB (K252a), JNK (SP600125), p38 (SB203580), ERK (PD98059) and PI3′K/AKT (LY294002) inhibitors. […] Taken together, BRCA1-IRIS overexpression activates AKT and ERK, thereby inactivating FOXO3a and promoting Cyclin D1, survivin, Bcl-2 and NF-κB expression and suppressing p27 expression (FIG. 15).
HOSE cells overexpressing IRIS show a higher degree of resistance to cisplatin than HOSE cells (compare blue to black line in FIG. 30).
Cell viability measurement. Cell viability under different experimental conditions was determined using the MTS assay […]. Briefly, SKOV3, OVACAR3, HOSE and HOSE/IRIS cells (2.5×10^4 cells per well) were seeded in 96 well plates and incubated overnight at 37° C. in 10% humidified CO2 atmosphere in varying concentrations of IRIS peptide, or inhibitors of ErbB2 (CP-724714), EGFR (Erlotinib), TrkB (K252a), JNK (SP600125), p38 (SB203580), ERK (PD98059) and PI3′K/AKT (LY294002) inhibitors for 24 hours at 37° C. Cell Titer 96® Aqueous (Promega, Madison, Wis., USA) was used to measure viability following manufactures instructions. Cell viability (%) was expressed as a ratio to control cells×100. Growth inhibition was also determined by manually counting cells in five different microscopic fields. Change in cell numbers (fold) was expressed as a ratio to control cells×100. All experiments were done in at least triplicates, three different times. * is p≦0.05, ** is p≦0.001 and *** is p≦0.0001.

HME and HME/IRIS cells = test: Survival of HME versus HME/IRIS cells with pathway inhibitors; conditions: 10 μM inhibitor, 24 hours
Method: Similar numbers of HME or HME/IRIS were grown in the presence of 10 μM of ERK (PD98059), JNK (SP600125), p38 (SB203580), EGFR (Erlotinib), ErbB2 (CP-724714) or PI3′K/AKT (LY294002) inhibitors for 24 hours. In keeping with published data (Nakuci et al., 2006; Hao and ElShamy, 2007; Chock et al., 2010a), BRCA1-IRIS overexpression promoted cells proliferation (FIG. 73). Thus, data are represented as percentage of treatment compared to no treatment in each cell line separately. […] Thus, as expected, cells overexpressing BRCA1-IRIS exerts some of their functions through EGFR/ErbB2 that feeds into PI3′K/AKT/mTOR and MAPK signaling pathways (FIG. 74).
Cell viability measurement. Cell viability under different experimental conditions was determined using the MTS assay. Briefly, cells (2.5×10^4 cells per well) were seeded in 96-well plates and incubated overnight at 37° C. in 10% humidified CO2 atmosphere. The next day they were incubated with varying concentration of peptide, or inhibitors for 24 hours at 37° C. Cell viability was determined using cell Titer 96® Aqueous (Promega, Madison, Wis., USA) following manufacturer's instructions. Cell viability (%) was expressed as a ratio of treated cells to control cells×100. Growth inhibition was also determined by manually counting cells in five different microscopic fields. Change in cell numbers (fold) was expressed as a ratio of the means of these recording of treated cells compared to control cells×100. Each experiment was done in triplicate, repeated three separate times.

AKT, ERK, MDM2 and Skp2 = test: Signalling proteins in SKOV3 and OVCAR3 cells (Western)
Description: Finally, to further dissect the IRIS-induced cisplatin resistance pathway, PI3′K/AKT (using […]) and ERK (using PD98059) were inactivated and compared to IRIS peptide in two aggressive ovarian cancer cell lines. […] Phosphorylation of cytoplasmic or nuclear FOXO3a by p-AKT and/or p-ERK promotes MDM2 binding and priming ubiquitylation, which is then followed by Skp2 branching ubiquitylation and FOXO3a degradation (Huang and Tindall, 2011). FOXO was less phosphorylated in LY, PD as well as IRIS-silenced/inactivated SKOV3 or OVCAR3 cells (FIG. 34). […] Consistently, in BRCA1-IRIS silenced/inactivated cells accumulation of unphosphorylated/stabilized FOXO3a was detected. In contrast, FOXO3a was still decreased to different degrees in LY or PD treated cells (FIG. 34).

BRCA1-IRIS = BRCA1-IRIS expression in breast cells (Western); conditions: MDA-MB-231 and MDA-MB-468; 5 μM IRIS peptide, 10 μM LY294002 or 10 μM PD98059 24 hours; siRNA 72 hours
Method: HME and HME/IRIS cells were treated with 10, 20 and 50 μM of paclitaxel for 24 hours. Compared to HME/IRIS cells, untreated HME cells express very low level of BRCA1-IRIS (FIG. 68, left). […] Both EGF and NRG1, which were secreted at higher levels from untreated HME/IRIS cells, remained high after paclitaxel (until ˜50 μM, FIG. 68, left), whereas in HME cells, both were induced by low paclitaxel treatment (FIG. 68, left). Consistently, in HME/IRIS cells EGFR was phosphorylated on Y1173 (activated by EGF when EGFR is in complex with ErbB2) and ErbB2 on Y1248 (activated by NRG1 when ErbB2 is in complex with ErbB3) remained the same after paclitaxel treatment (until ˜50 μM, FIG. 68, left). Phosphorylated EGFR-Y1173 and ErbB2-Y1248 was only observed in paclitaxel treated HME cells, especially at low concentration (FIG. 68, left).
Survived/paclitaxel-resistant cells were then propagated in the absence of paclitaxel and analyzed. Again, the intrinsically high level of BRCA1-IRIS was not affected by paclitaxel in HME/IRIS cells (FIG. 69, left). […] The expressions of EGFR, ErbB2 and ErbB3 were high in HME/IRIS and HME cells (FIG. 69, left). Despite an intrinsic increase in HME/IRIS and paclitaxel-acquired increase in HME cells in AKT activation, FOXO inactivation/degradation and thus activation increase in CyclinD1, survivin, Bcl-2, Bcl-xL and NF-κB was observed (FIG. 69, right).
To test that hypothesis, an intron 11 peptide (right in FIG. 26) fused to a cell/nucleus penetrating signal at its N-terminus (left in FIG. 26) was synthesized (hereafter IRIS peptide). First, to assess the effect of this IRIS peptide, equal numbers of HME, HME/IRIS, MDA-MB-231, MDA-MB-468 and BT549 cells were exposed to increasing concentrations of scrambled or IRIS peptide for 48 hours. […] It is possible that preventing BRCA1-IRIS-X complex formation destabilizes BRCA1-IRIS and perhaps leads to its degradation.
To investigate whether inactivating BRCA1-IRIS could sensitize TNBC to paclitaxel-induced cell death, HME cells were exposed to 0.5 μM, while HME/IRIS, MDA-MB-231, MDA-MB-468 and BT549 cells were exposed to 5 μM of IRIS peptide alone or with 5, 10 or 20 μM of paclitaxel for 24 hours. […] Again, IRIS peptide alone at these concentrations led to 50% reduction in survival of all cell lines. […] Indeed, in the presence of IRIS peptide >60%, >70% and >90% reduction in the survival of all cell lines in the presence of 5, 10 and 20 μM of paclitaxel, respectively (FIG. 84).
To relate the effect of IRIS peptide on cell survival to the effect of BRCA1-IRIS on AKT and ERK survival pathways, MDA-MB-231 and MDA-MB-468 were treated with vehicle, 5 μM of IRIS peptide, 10 μM LY294002, 10 μM PD98059 for 24 hours or were transfected with BRCA1-IRIS siRNA for 72 hours.

[1] = system: AKT, p-AKT, p-FOXO and FOXO3a; test: Signalling proteins in MDA-MB-231 and MDA-MB-468 cells (Western); conditions: 5 μM IRIS peptide, 10 μM LY294002 or 10 μM PD98059, 24 hours
Description: This was completely in line with decreased MDM2 and Skp2 (the ubiquitin ligases responsible for p-FOXO degradation) expression in BRCA1-IRIS silenced and BRCA1-IRIS and AKT inactivated cells (FIG. 87).

Row | SMILES | effect on survival of HOSE versus HOSE/IRIS cells (HOSE and HOSE/IRIS cells) | effect on survival of HME versus HME/IRIS cells (HME and HME/IRIS cells) | AKT and ERK expression and activation (AKT, ERK, MDM2 and Skp2) | MDM2 and Skp2 expression (AKT, ERK, MDM2 and Skp2) | BRCA1-IRIS expression (BRCA1-IRIS) | p-FOXO and FOXO3a levels [1]
1 | COCC(=O)NC/C=C/c1ccc2ncnc(Nc3ccc(Oc4ccc(C)nc4)c(C)c3)c2c1 [CP-724714] | significantly decreased survival of HOSE/IRIS cells only | specifically reduced survival in HME/IRIS and not HME cells | – | – | – | –
2 | C#Cc1cccc(Nc2ncnc3cc(OCCOC)c(OCCOC)cc23)c1 [Erlotinib] | equally decreased survival of HOSE and HOSE/IRIS cells | reduced survival of both cell lines | – | – | – | –
3 | COC(=O)[C@@]1(O)C[C@H]2O[C@]1(C)n1c3ccccc3c3c4c(c5c6ccccc6n2c5c31)C(=O)NC4 [K252a] | significantly decreased survival of HOSE/IRIS cells only | – | – | – | – | –
4 | COc1cccc(-c2cc(=O)c3ccccc3o2)c1N [PD98059] | significantly decreased survival of HOSE/IRIS cells only | specifically reduced survival in HME/IRIS and not HME cells | significantly inactivated their cognate protein | reduced Skp2 and not MDM2 expression | significantly reduced BRCA1-IRIS expression in MDA-MB-231 and to a lesser degree in MDA-MB-468 | no effect
5 | C[S+]([O-])c1ccc(-c2nc(-c3ccncc3)c(-c3ccc(F)cc3)[nH]2)cc1 (stereo not shown) [SB203580] | equally decreased survival of HOSE and HOSE/IRIS cells | no effect on either cell line | – | – | – | –
